Read-outs that look alike come from different tables or passages of the source.
How the values were obtained:
Type in all cases: physicochemical
[1] = Water solubility of solvent A at 20° C.; conditions: for Water solubility (% by mass): 20° C.
Description: When a compound is a salt in the present invention, the salt exists while dissociating into ions in an ink, but this is expressed as “containing a salt” for convenience. An aqueous inkjet ink may be described as just an “ink.” The physical property values are values at 20° C. unless otherwise specified.
This solvent A is a so-called poorly water-soluble compound (poorly water-soluble solvent), which is poorly dissolved in water. […] When water in the ink evaporates and the concentration increases, the solvent A cannot be completely dissolved in the ink to separate from the ink. Because the tips of non-printing nozzles are exposed to the atmosphere, water in the ink volatilizes particularly easily.

[2] = Vapor pressure of solvent A at 20° C.
Description: (§1) The present invention will be described in detail hereinafter by mentioning preferable embodiments. When a compound is a salt in the present invention, the salt exists while dissociating into ions in an ink, but this is expressed as “containing a salt” for convenience. An aqueous inkjet ink may be described as just an “ink.” The physical property values are values at 20° C. unless otherwise specified.
(§2) The vapor pressure of the solvent A at 20° C. is 0.5 mmHg or less, and the surface tension at 20° C. is 30 mN/m or more. When the vapor pressure is more than 0.5 mmHg, oil films formed on ejection ports evaporate, and the effect of suppressing water evaporation becomes weak. When the surface tension is less than 30 mN/m, the intermolecular force is weak. Therefore, oil films cannot be formed. The vapor pressure of the solvent A at 20° C. can be 0.2 mmHg or less. The surface tension of the solvent A at 20° C. can be 36 mN/m or more. Specific examples of the solvent A are illustrated in Table 1.

[3] = Surface tension of solvent A at 20° C.
Description: as §1, §2

[4] = Log partition coefficient of solvent A

Row | Structure (SMILES) | Water solubility (% by mass) [1] | Vapor pressure (mmHg) [2] | Surface tension (mN/m) [3] | Log partition coefficient [4] | Vapor pressure (mmHg) ([2]; 20° C.) | water solubility of the solvent A in the prepared ink ([1]; solvent A of ink 1)
1 | OCCCc1ccccc1 [3-Phenyl-1-propanol] | 0.568 % by mass | 0 mmHg | 38.9 mN/m | 1.88 | – | –
2 | OCc1ccccc1 [Benzyl alcohol] | 4.29 % by mass | 0.1 mmHg | 39 mN/m | 1.03 | – | –
3 | CC(O)Cc1ccccc1 (stereo not shown) [1-Phenyl-2-propanol] | 0.58 % by mass | – | 37.3 mN/m | 1.71 | 0.1 mmHg | –
4 | OCCc1ccccc1 [Phenethyl alcohol] | 2.2 % by mass | 0.1 mmHg | 39.7 mN/m | – | – | –
5 | CC(O)COc1ccccc1 (stereo not shown) [1-Phenoxy-2-propanol] | 1.1 % by mass | 0 mmHg | 37.7 mN/m | 1.51 | – | –
6 | OCCOc1ccccc1 [2-Phenoxyethanol] | 2.67 % by mass | 0 mmHg | 40 mN/m | 1.16 | – | 2.7%
7 | OCCCCc1ccccc1 [4-Phenyl-1-butanol] | 0.1 % by mass | 0 mmHg | 38.3 mN/m | 2.4 | – | –
